This note sets out measurements from patent US20080275032A1, “Pyridazinone compounds” (priority 2006, published 2008).

This assay concerns the target HCV NS5B polymerase (Hepatitis C virus genotype 1b, UniProt P26663). Briefly: biochemical. The conditions noted are these: HCV polymerase inhibition, 50 nM enzyme, 2 h at room temperature, FlashPlate [α-33P]GTP incorporation. Here is the method: NS5B Polymerase Inhibition Assay (IC50)
Compounds were tested for HCV polymerase inhibition. Assays were performed in a 96-well streptavidin-coated FlashPlate using 50 nM enzyme, 0.5 μCi of [α-^33P]GTP, 0.6 μM GTP, and 50 nM 5′biotinylated oligo (rG13)/poly rC in 20 mM Tris-HCl, pH 7.5, 5 mM MgCl2, 20 mM NaCl, 5 mM dithiothreitol, and 0.1 g/L BSA. The reaction was stopped by aspiration after 2 h at room temperature and the plate was washed several times. After washing, incorporated radioactivity was counted using a Microbeta scintillation counter.

In general, IC50 refers to the concentration at which inhibition is half-maximal. Read a high IC50 as weaker potency in that assay.

The structures appear in SMILES notation. Structures can show the parent of a compound that is named as a salt.

Chain of HCV NS5B polymerase (P26663 2420-3010): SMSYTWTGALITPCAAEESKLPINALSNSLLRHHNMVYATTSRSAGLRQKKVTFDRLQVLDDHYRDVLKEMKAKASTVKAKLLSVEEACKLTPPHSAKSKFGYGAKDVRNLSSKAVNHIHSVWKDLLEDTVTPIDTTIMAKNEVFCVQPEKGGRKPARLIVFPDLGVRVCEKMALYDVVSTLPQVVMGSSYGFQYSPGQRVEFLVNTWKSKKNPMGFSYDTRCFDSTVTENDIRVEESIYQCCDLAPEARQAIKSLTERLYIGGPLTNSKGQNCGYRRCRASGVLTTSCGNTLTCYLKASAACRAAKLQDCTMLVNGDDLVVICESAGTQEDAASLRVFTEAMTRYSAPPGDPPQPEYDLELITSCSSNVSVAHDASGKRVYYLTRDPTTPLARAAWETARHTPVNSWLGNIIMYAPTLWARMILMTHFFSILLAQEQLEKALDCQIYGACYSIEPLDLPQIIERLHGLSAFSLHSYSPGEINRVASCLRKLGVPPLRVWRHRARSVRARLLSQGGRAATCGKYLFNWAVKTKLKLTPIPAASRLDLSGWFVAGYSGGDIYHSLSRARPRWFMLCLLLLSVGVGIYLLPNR

Turning to `O=C(NS(=O)(=O)Nc1ccc2c(c1)S(=O)(=O)NC(c1c(O)c(-c3cncs3)nn(CC3CCC3)c1=O)=N2)OCc1ccccc1` [N-[3-(2-Cyclobutylmethyl-5-hydroxy-3-oxo-6-thiazol-5-yl-2,3-dihydro-pyridazin-4-yl)-1,1-dioxo-1,2-dihydro-1λ^6-benzo[1,2,4]thiadiazin-7-yl]-3-carbamic-acid-benzyl-ester-sulfamide], the IC50 is less than 100 nM.

`CS(=O)(=O)Nc1ccc2c(c1)S(=O)(=O)NC(c1c(O)c(-c3cncs3)nn(CC3CCC3)c1=O)=N2` [N-[3-(2-Cyclobutylmethyl-5-hydroxy-3-oxo-6-thiazol-5-yl-2,3-dihydro-pyridazin-4-yl)-1,1-dioxo-1,2-dihydro-1λ^6-benzo[1,2,4]thiadiazin-7-yl]-methanesulfonamide] yielded an IC50 of less than 100 nM.

On to `CS(=O)(=O)Nc1ccc2c(c1)S(=O)(=O)NC(c1c(O)c(-c3cccs3)nn(CC3CCC3)c1=O)=N2` [N-[3-(2-Cyclobutylmethyl-5-hydroxy-3-oxo-6-thiophen-2-yl-2,3-dihydro-pyridazin-4-yl)-1,1-dioxo-1,2-dihydro-1λ^6-benzo[1,2,4]thiadiazin-7-yl]-methanesulfonamide], for which the IC50 is less than 100 nM.

In turn, `CS(=O)(=O)Nc1ccc2c(c1)S(=O)(=O)NC(c1c(O)c(-c3ccccc3)nn(CC3CC3)c1=O)=N2` [N-[3-(2-Cyclopropylmethyl-5-hydroxy-3-oxo-6-phenyl-2,3-dihydro-pyridazin-4-yl)-1,1-dioxo-1,2-dihydro-1l6-benzo[1,2,4]thiadiazin-7-yl]-methanesulfonamide] had an IC50 of 100 to 1000 nM.

`CCC(C)n1nc(-c2cccs2)c(O)c(C2=NS(=O)(=O)c3cc(NS(C)(=O)=O)ccc3N2)c1=O` (stereo not drawn) [N-[3-(2-sec-Butyl-5-hydroxy-3-oxo-6-thiophen-2-yl-2,3-dihydro-pyridazin-4-yl)-1,1-dioxo-1,2-dihydro-1λ^6-benzo[1,2,4]thiadiazin-7-yl]-methanesulfonamide] showed an IC50 of 100 to 1000 nM.

For the compound `CS(=O)(=O)Nc1ccc2c(c1)S(=O)(=O)NC(c1c(O)c(-c3cccs3)nn(Cc3ccccn3)c1=O)=N2` [N-[3-(5-Hydroxy-3-oxo-2-pyridin-2-ylmethyl-6-thiophen-2-yl-2,3-dihydro-pyridazin-4-yl)-1,1-dioxo-1,2-dihydro-1λ^6-benzo[1,2,4]thiadiazin-7-yl]-methanesulfonamide], the IC50 was less than 100 nM.

`CS(=O)(=O)Nc1ccc2c(c1)S(=O)(=O)N=C(c1c(O)c(-c3cccs3)nn(Cc3ccsc3)c1=O)N2` [N-[3-(5-Hydroxy-3-oxo-6-thiophen-2-yl-2-thiophen-3-ylmethyl-2,3-dihydro-pyridazin-4-yl)-1,1-dioxo-1,2-dihydro-1λ^6-benzo[1,2,4]thiadiazin-7-yl]-methanesulfonamide] yielded an IC50 of less than 100 nM.

In turn, `CC(C)CC(C)n1nc(-c2cccs2)c(O)c(C2=NS(=O)(=O)c3cc(NS(C)(=O)=O)ccc3N2)c1=O` (stereo not drawn) [N-{3-[2-(1,3-Dimethyl-butyl)-5-hydroxy-3-oxo-6-thiophen-2-yl-2,3-dihydro-pyridazin-4-yl]-1,1-dioxo-1,2-dihydro-1λ^6-benzo[1,2,4]thiadiazin-7-yl}-methanesulfonamide] came in with a half-inhibitory concentration (IC50) of 100 to 1000 nM.

`CC(C)(C)Cn1nc(-c2cccs2)c(O)c(C2=Nc3ccc(NS(C)(=O)=O)cc3S(=O)(=O)N2)c1=O` [N-{3-[2-(2,2-Dimethyl-propyl)-5-hydroxy-3-oxo-6-thiophen-2-yl-2,3-dihydro-pyridazin-4-yl]-1,1-dioxo-1,2-dihydro-1λ^6-benzo[1,2,4]thiadiazin-7-yl}-methanesulfonamide]: the IC50 is less than 100 nM.

In turn, `CS(=O)(=O)Nc1ccc2c(c1)S(=O)(=O)N=C(c1c(O)c(-c3cccs3)nn(CCC3CCCCC3)c1=O)N2` [N-{3-[2-(2-Cyclohexyl-ethyl)-5-hydroxy-3-oxo-6-thiophen-2-yl-2,3-dihydro-pyridazin-4-yl]-1,1-dioxo-1,2-dihydro-1λ^6-benzo[1,2,4]thiadiazin-7-yl}-methanesulfonamide] showed an IC50 of 100 to 1000 nM.

With `CS(=O)(=O)Nc1ccc2c(c1)S(=O)(=O)N=C(c1c(O)c(-c3cccs3)nn(CCC3CCCC3)c1=O)N2` [N-{3-[2-(2-Cyclopentyl-ethyl)-5-hydroxy-3-oxo-6-thiophen-2-yl-2,3-dihydro-pyridazin-4-yl]-1,1-dioxo-1,2-dihydro-1λ^6-benzo[1,2,4]thiadiazin-7-yl}-methanesulfonamide], the IC50 was less than 100 nM.

Regarding `CS(=O)(=O)Nc1ccc2c(c1)S(=O)(=O)NC(c1c(O)c(-c3cncs3)nn(CCC3CC3)c1=O)=N2` [N-{3-[2-(2-Cyclopropyl-ethyl)-5-hydroxy-3-oxo-6-thiazol-5-yl-2,3-dihydro-pyridazin-4-yl]-1,1-dioxo-1,2-dihydro-1λ^6-benzo[1,2,4]thiadiazin-7-yl}-methanesulfonamide], the IC50 is less than 100 nM.

`CS(=O)(=O)Nc1ccc2c(c1)S(=O)(=O)N=C(c1c(O)c(-c3cccs3)nn(CCC3CC3)c1=O)N2` [N-{3-[2-(2-Cyclopropyl-ethyl)-5-hydroxy-3-oxo-6-thiophen-2-yl-2,3-dihydro-pyridazin-4-yl]-1,1-dioxo-1,2-dihydro-1λ^6-benzo[1,2,4]thiadiazin-7-yl}-methanesulfonamide]: the 50% inhibitory concentration (IC50) was less than 100 nM.

`CS(=O)(=O)Nc1ccc2c(c1)S(=O)(=O)NC(c1c(O)c(-c3ccsc3)nn(CCC3CC3)c1=O)=N2` [N-{3-[2-(2-Cyclopropyl-ethyl)-5-hydroxy-3-oxo-6-thiophen-3-yl-2,3-dihydro-pyridazin-4-yl]-1,1-dioxo-1,2-dihydro-1λ^6-benzo[1,2,4]thiadiazin-7-yl}-methanesulfonamide] gave an IC50 of less than 100 nM.

As to `CC(C)=Cc1nn(CCC2CC2)c(=O)c(C2=Nc3ccc(NS(C)(=O)=O)cc3S(=O)(=O)N2)c1O` [N-{3-[2-(2-Cyclopropyl-ethyl)-5-hydroxy-6-(2-methyl-propenyl)-3-oxo-2,3-dihydro-pyridazin-4-yl]-1,1-dioxo-1,2-dihydro-1λ^6-benzo[1,2,4]thiadiazin-7-yl}-methanesulfonamide], the IC50 is less than 100 nM.

Regarding `CC(C)(C)CCn1nc(-c2cccs2)c(O)c(C2=NS(=O)(=O)c3cc(NS(N)(=O)=O)ccc3N2)c1=O` [N-{3-[2-(3,3-Dimethyl-butyl)-5-hydroxy-3-oxo-6-thiophen-2-yl-2,3-dihydro-pyridazin-4-yl]-1,1-dioxo-1,2-dihydro-1λ^6-benzo[1,2,4]thiadiazin-7-yl}-sulfamide], the IC50 was less than 100 nM.

With `CCC(C)(C)CCn1nc(-c2cccs2)c(O)c(C2=NS(=O)(=O)c3cc(NS(C)(=O)=O)ccc3N2)c1=O` [N-{3-[2-(3,3-Dimethyl-pentyl)-5-hydroxy-3-oxo-6-thiophen-2-yl-2,3-dihydro-pyridazin-4-yl]-1,1-dioxo-1,2-dihydro-1λ^6-benzo[1,2,4]thiadiazin-7-yl}-methanesulfonamide], the IC50 was less than 100 nM.

Compound `CC(C)(C)CCn1nc(-c2cccs2)c(O)c(C2=Nc3ccc(NS(C)(=O)=O)cc3S(=O)(=O)N2)c1=O` [N-{3-[2-(3,3-dimethyl-butyl)-5-hydroxy-3-oxo-6-thiophen-2-yl-2,3-dihydro-pyridazin-4-yl]-1,1-dioxo-1,2-dihydro-1λ^6-benzo[1,2,4]thiadiazin-7-yl}-methanesulfonamide, sodium salt] came in with an IC50 of less than 100 nM.
